# In patent US8362065B2, “Carbazole carboxamide compounds useful as kinase inhibitors” (Bristol-Myers Squibb Company, priority 2008, dated 2013):
# Biological target: T1, human recombinant Btk (Homo sapiens, UniProt Q06187)
# T1 construct: purchased Invitrogen Corporation
# Experiment: Human Recombinant Btk Enzyme Assay
# Type: biochemical
# Details: human recombinant Btk 1 nM, ATP 20 μM, 60 min at room temperature; read-out: IC50 for Inhibition of Btk
# T1 sequence (Q06187 whole entry): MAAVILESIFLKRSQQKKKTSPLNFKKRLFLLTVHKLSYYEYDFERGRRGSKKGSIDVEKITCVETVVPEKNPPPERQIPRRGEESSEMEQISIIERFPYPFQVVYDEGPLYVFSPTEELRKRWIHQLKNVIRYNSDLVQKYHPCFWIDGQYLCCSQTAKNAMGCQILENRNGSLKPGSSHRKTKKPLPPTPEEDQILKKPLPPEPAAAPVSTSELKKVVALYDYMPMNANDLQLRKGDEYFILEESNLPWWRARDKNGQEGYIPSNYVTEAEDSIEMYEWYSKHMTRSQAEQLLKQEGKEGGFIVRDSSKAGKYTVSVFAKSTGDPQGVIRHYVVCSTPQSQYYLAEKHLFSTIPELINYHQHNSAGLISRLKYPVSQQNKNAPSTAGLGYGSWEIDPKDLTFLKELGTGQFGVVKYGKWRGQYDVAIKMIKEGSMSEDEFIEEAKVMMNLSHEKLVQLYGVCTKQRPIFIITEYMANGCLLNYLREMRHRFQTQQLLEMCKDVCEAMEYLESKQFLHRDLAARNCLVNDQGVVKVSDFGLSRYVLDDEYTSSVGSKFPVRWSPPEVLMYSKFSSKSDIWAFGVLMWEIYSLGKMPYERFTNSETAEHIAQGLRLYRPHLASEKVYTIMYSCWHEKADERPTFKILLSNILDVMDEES
row,SMILES,IC50 [µM]
1,"Cc1ccc2c(c1)C(=O)N(c1cccc(-c3ccc(C(N)=O)c4[nH]c5cc(C(O)COC(=O)C(C)N)ccc5c34)c1C)C2 (stereo not drawn) [Example 83-4, 2-(8-carbamoyl-5-(2-methyl-3-(6-methyl-1-oxoisoindolin-2-yl)phenyl)-9H-carbazol-2-yl)-2-hydroxyethyl 2-aminopropanoate]",0.0011
2,"CN1CCN(C(=O)c2ccc3c(c2)[nH]c2c(C(N)=O)ccc(-c4cc(F)ccc4F)c23)CC1 [Example 2-12, 4-(2,5-difluorophenyl)-7-(4-methylpiperazine-1-carbonyl)-9H-carbazole-1-carboxamide]",0.016
3,"CN1CCN(C(=O)c2ccc3c(c2)[nH]c2c(C(N)=O)ccc(N4CCC[C@@H](N)C4)c23)CC1 [Example 17-1, (R)-4-(3-aminopiperidin-1-yl)-7-(4-methylpiperazine-1-carbonyl)-9H-carbazole-1-carboxamide]",1.1
4,"Cc1c(-c2ccc(C(N)=O)c3[nH]c4cc(CNC(=O)CO)ccc4c23)cccc1N1Cc2ccccc2C1=O [Example 34-2, 7-((2-hydroxyacetamido)methyl)-4-(2-methyl-3-(1-oxoisoindolin-2-yl)phenyl)-9H-carbazole-1-carboxamide]",0.002
5,"Cc1c(NS(=O)(=O)CCCCl)cccc1-c1ccc(C(N)=O)c2[nH]c3cc(C(=O)N4CCN(C)CC4)ccc3c12 [Example 10-4, 4-(3-(3-chloropropylsulfonamido)-2-methylphenyl)-7-(4-methylpiperazine-1-carbonyl)-9H-carbazole-1-carboxamide]",0.017
6,"NC(=O)c1ccc(Br)c2c1[nH]c1cc(NC(=O)OCc3ccccc3)ccc12 [Example 50-3, benzyl 5-bromo-8-carbamoyl-9H-carbazol-2-ylcarbamate]",1.3
7,Cc1c(-c2ccc(C(N)=O)c3[nH]c4c(c23)CCC(C(C)(C)O)C4)cccc1N1Cc2ccc(C(F)(F)F)cc2C1=O (stereo not drawn) [Example 76-44],0.018
8,Cc1c(-c2ccc(C(N)=O)c3[nH]c4cc(C(C)(C)O)ccc4c23)cccc1N1CCc2cc(F)ccc2C1=O [Example 81-20],0.0022
9,Cc1c(NC(=O)c2ccc(F)cc2)cccc1-c1ccc(C(N)=O)c2[nH]c3cc(C(O)CO)ccc3c12 (racemic) [Example 70-2],0.0022
10,Cc1c(NC(=O)c2ccc(F)cc2)cccc1-c1ccc(C(N)=O)c2[nH]c3cc(CN4CCCC4)ccc3c12 [Example 39-4],0.0017
11,"CN1CCN(C(=O)c2ccc3c(c2)[nH]c2c(C(N)=O)ccc(-c4cccc5[nH]c(C(=O)Nc6ccc(F)cc6)cc45)c23)CC1 [Example 2-25, 4-(2-(4-fluorophenylcarbamoyl)-1H-indol-4-yl)-7-(4-methylpiperazine-1-carbonyl)-9H-carbazole-1-carboxamide]",3.1
12,"Cc1c(NC(=O)c2ccc(F)cn2)cccc1-c1ccc(C(N)=O)c2[nH]c3cc(NC(=O)OCc4ccccc4)ccc3c12 [Example 52-1, benzyl 8-carbamoyl-5-(3-(5-fluoropicolinamido)-2-methylphenyl)-9H-carbazol-2-ylcarbamate]",0.52
13,Cc1ccc2c(c1)C(=O)N(c1cccc(-c3ccc(C(N)=O)c4[nH]c5cc(N6CCC(C)(C)C6=O)ccc5c34)c1C)C2 [Example 66-37],0.015
14,"CN1CCN(C(=O)c2ccc3c(c2)[nH]c2c(C(N)=O)ccc(N4CCCCC4=O)c23)CC1 [Example 20-1, 7-(4-methylpiperazine-1-carbonyl)-4-(2-oxopiperidin-1-yl)-9H-carbazole-1-carboxamide]",0.51
15,"Cc1ccc2c(c1)C(=O)N(c1cccc(-c3ccc(C(N)=O)c4[nH]c5cc(C(COC(=O)C(C)N)OC(=O)C(C)N)ccc5c34)c1C)C2 (stereo not drawn) [Example 83-3, 1-(8-carbamoyl-5-(2-methyl-3-(6-methyl-1-oxoisoindolin-2-yl)phenyl)-9H-carbazol-2-yl)ethane-1,2-diylbis(2-aminopropanoate)]",0.0014
